The values that follow come from the supplement of paper PMC10307832.

Common to all, as to assay: relative viability (nuclei count vs DMSO), 5 days (fraction); higher = more cells survive
Compound in one test: O=C(Nc1cccc(C(F)(F)F)c1)Nc1cc(S(=O)(=O)NC2CC2)ccc1-c1ccsc1 [AGI-6780]
Summed up:
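Following overnight incubation at 37 °C, lung cancer cell lines in 1536-well plates were pinned with five library-drug doses (not always all listed) in √10 steps on vehicle-anchored plates. The cells then spent 5 days without medium change before a combined fix, permeabilisation and Hoechst stain, 4× imaging and MetaXpress nuclear counts. Viability is the treated-to-vehicle ratio of nuclei, taken as the median across plates. Only plates with control CV below 25% and at least one doubling passed.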

Compound in the test “AGI-6780 + Trametinib”: O=C(Nc1cccc(C(F)(F)F)c1)Nc1cc(S(=O)(=O)NC2CC2)ccc1-c1ccsc1 [AGI-6780] + CC(=O)Nc1cccc(-n2c(=O)n(C3CC3)c(=O)c3c(Nc4ccc(I)cc4F)n(C)c(=O)c(C)c32)c1 [Trametinib] (partner 0.02 µM)
The method in brief:
(§1)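 Relative viability was taken as the ratio of nuclei in treated wells to nuclei in vehicle wells. Lung cancer cell lines in 1536-well plates received compounds by pin tool one day after seeding, either one drug alone or a fixed anchor-drug dose plus five library-drug doses (not always all listed) in √10 steps. Nuclei were counted on 4× images after 5 days of treatment, and values are medians of duplicate plates.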

Compound in the test “AGI-6780 + Tozasertib”: O=C(Nc1cccc(C(F)(F)F)c1)Nc1cc(S(=O)(=O)NC2CC2)ccc1-c1ccsc1 [AGI-6780] + Cc1cc(Nc2cc(N3CCN(C)CC3)nc(Sc3ccc(NC(=O)C4CC4)cc3)n2)n[nH]1 [Tozasertib] (partner 0.1 µM)
The method in brief:
as §1

Compound in the test “AGI-6780 + AZD7762”: O=C(Nc1cccc(C(F)(F)F)c1)Nc1cc(S(=O)(=O)NC2CC2)ccc1-c1ccsc1 [AGI-6780] + NC(=O)Nc1cc(-c2cccc(F)c2)sc1C(=O)N[C@H]1CCCNC1 [AZD7762] (partner 0.2 µM)
Summed up:
as §1

Take NCI-H1915: the relative viability with AGI-6780 (0.08 µM) came out at 1.02; with AGI-6780 (0.253 µM), 0.995; in the test with AGI-6780 (0.8 µM), 1.01; with AGI-6780 (2.53 µM), 0.994; in the test with AGI-6780 (8 µM), 1.05; with AGI-6780 + Trametinib (first compound 0.08 µM) it was 0.314. Also, the relative viability with AGI-6780 + Trametinib (first compound 0.253 µM) is 0.304; with AGI-6780 + Trametinib (first compound 0.8 µM) it was 0.298; with AGI-6780 + Trametinib (first compound 2.53 µM), 0.246; with AGI-6780 + Trametinib (first compound 8 µM), 0.274; in the test with AGI-6780 + Tozasertib (first compound 0.08 µM), 0.432; with AGI-6780 + Tozasertib (first compound 0.253 µM), 0.418. For the same cell line, the relative viability with AGI-6780 + Tozasertib (first compound 0.8 µM) stood at 0.469; with AGI-6780 + Tozasertib (first compound 2.53 µM), 0.282; with AGI-6780 + Tozasertib (first compound 8 µM), 0.428; with AGI-6780 + AZD7762 (first compound 0.08 µM) it was 0.715; with AGI-6780 + AZD7762 (first compound 0.253 µM), 0.713; in the test with AGI-6780 + AZD7762 (first compound 0.8 µM), 0.729. Besides, the values for the relative viability in the test with AGI-6780 + AZD7762 (first compound 2.53 µM) and with AGI-6780 + AZD7762 (first compound 8 µM) were 0.637 and 0.698, respectively.
For the cell line NCI-H2085, the relative viability with AGI-6780 (0.08 µM) worked out at 1.02; with AGI-6780 (0.253 µM) it was 1; with AGI-6780 (0.8 µM), 1.05; with AGI-6780 (2.53 µM) it was 1.07; in the test with AGI-6780 (8 µM), 0.993; with AGI-6780 + Trametinib (first compound 0.08 µM), 0.651. For the same cell line, the relative viability came out at 0.581 in the test with AGI-6780 + Trametinib (first compound 0.253 µM); 0.526 with AGI-6780 + Trametinib (first compound 0.8 µM); 0.666 with AGI-6780 + Trametinib (first compound 2.53 µM); 0.735 with AGI-6780 + Trametinib (first compound 8 µM); 0.755 with AGI-6780 + Tozasertib (first compound 0.08 µM); 0.736 with AGI-6780 + Tozasertib (first compound 0.253 µM). For the same cell line, the relative viability in the test with AGI-6780 + Tozasertib (first compound 0.8 µM) was 0.779; with AGI-6780 + Tozasertib (first compound 2.53 µM), 0.809; in the test with AGI-6780 + Tozasertib (first compound 8 µM) it was 0.61; in the test with AGI-6780 + AZD7762 (first compound 0.08 µM), 1.07; with AGI-6780 + AZD7762 (first compound 0.253 µM), 1; with AGI-6780 + AZD7762 (first compound 0.8 µM) it was 0.995. In addition, the relative viability in the test with AGI-6780 + AZD7762 (first compound 2.53 µM) was 1.06; in the test with AGI-6780 + AZD7762 (first compound 8 µM), 1.
For NCI-H1755, the relative viability amounted to 1.02 in the test with AGI-6780 (0.08 µM); 0.983 with AGI-6780 (0.253 µM); 0.964 in the test with AGI-6780 (0.8 µM); 0.915 in the test with AGI-6780 (2.53 µM); 1 with AGI-6780 (8 µM); 0.721 in the test with AGI-6780 + Trametinib (first compound 0.08 µM). Also, the relative viability with AGI-6780 + Trametinib (first compound 0.253 µM) is 0.775; in the test with AGI-6780 + Trametinib (first compound 0.8 µM) it was 0.723; with AGI-6780 + Trametinib (first compound 2.53 µM), 0.737; in the test with AGI-6780 + Trametinib (first compound 8 µM), 0.802; with AGI-6780 + Tozasertib (first compound 0.08 µM), 0.664; with AGI-6780 + Tozasertib (first compound 0.253 µM), 0.627. Also, the relative viability turned out to be 0.517 with AGI-6780 + Tozasertib (first compound 0.8 µM); 0.436 in the test with AGI-6780 + Tozasertib (first compound 2.53 µM); 0.557 with AGI-6780 + Tozasertib (first compound 8 µM); 0.478 with AGI-6780 + AZD7762 (first compound 0.08 µM); 0.417 in the test with AGI-6780 + AZD7762 (first compound 0.253 µM); 0.485 in the test with AGI-6780 + AZD7762 (first compound 0.8 µM). The relative viability with AGI-6780 + AZD7762 (first compound 2.53 µM) stood at 0.419; with AGI-6780 + AZD7762 (first compound 8 µM) it was 0.435.
With NCI-H322M, the relative viability in the test with AGI-6780 (0.08 µM) came out at 0.896; in the test with AGI-6780 (0.253 µM) it was 0.927; with AGI-6780 (0.8 µM), 1.07; with AGI-6780 (2.53 µM), 0.922; with AGI-6780 (8 µM), 0.965; in the test with AGI-6780 + Trametinib (first compound 0.253 µM), 0.525. For the same cell line, the relative viability amounted to 0.525 in the test with AGI-6780 + Trametinib (first compound 0.8 µM); 0.547 in the test with AGI-6780 + Trametinib (first compound 2.53 µM); 0.499 with AGI-6780 + Trametinib (first compound 8 µM); 0.517 in the test with AGI-6780 + Tozasertib (first compound 0.08 µM); 0.508 with AGI-6780 + Tozasertib (first compound 0.253 µM); 0.493 in the test with AGI-6780 + Tozasertib (first compound 0.8 µM). For the same cell line, the relative viability in the test with AGI-6780 + Tozasertib (first compound 2.53 µM) amounted to 0.425; with AGI-6780 + Tozasertib (first compound 8 µM) it was 0.515; in the test with AGI-6780 + AZD7762 (first compound 0.253 µM), 0.767; with AGI-6780 + AZD7762 (first compound 0.8 µM) it was 0.551; with AGI-6780 + AZD7762 (first compound 2.53 µM) it was 0.555; with AGI-6780 + AZD7762 (first compound 8 µM), 0.653.
As for HCC-827, the relative viability came to 1.06 in the test with AGI-6780 (0.08 µM); 1.06 with AGI-6780 (0.253 µM); 1.01 in the test with AGI-6780 (0.8 µM); 1.07 with AGI-6780 (2.53 µM); 1.02 with AGI-6780 (8 µM); 0.457 with AGI-6780 + Trametinib (first compound 0.08 µM). In addition, the relative viability came to 0.518 in the test with AGI-6780 + Trametinib (first compound 0.253 µM); 0.518 with AGI-6780 + Trametinib (first compound 0.8 µM); 0.435 with AGI-6780 + Trametinib (first compound 2.53 µM); 0.476 in the test with AGI-6780 + Trametinib (first compound 8 µM); 0.226 with AGI-6780 + Tozasertib (first compound 0.08 µM); 0.433 with AGI-6780 + Tozasertib (first compound 0.253 µM). The relative viability in the test with AGI-6780 + Tozasertib (first compound 0.8 µM) turned out to be 0.41; with AGI-6780 + Tozasertib (first compound 2.53 µM) it was 0.405; in the test with AGI-6780 + Tozasertib (first compound 8 µM) it was 0.432; with AGI-6780 + AZD7762 (first compound 0.08 µM), 0.223; in the test with AGI-6780 + AZD7762 (first compound 0.253 µM), 0.269; in the test with AGI-6780 + AZD7762 (first compound 0.8 µM), 0.356. Also, the relative viability with AGI-6780 + AZD7762 (first compound 2.53 µM) amounted to 0.236; with AGI-6780 + AZD7762 (first compound 8 µM), 0.187.
For the cell line NCI-H2087, the relative viability worked out at 1.03 in the test with AGI-6780 (0.08 µM); 1.18 in the test with AGI-6780 (0.253 µM); 1.12 in the test with AGI-6780 (0.8 µM); 1.01 with AGI-6780 (2.53 µM); 1.12 in the test with AGI-6780 (8 µM); 0.253 in the test with AGI-6780 + Trametinib (first compound 0.08 µM). Also, the relative viability in the test with AGI-6780 + Trametinib (first compound 0.253 µM) amounted to 0.183; in the test with AGI-6780 + Trametinib (first compound 0.8 µM) it was 0.218; in the test with AGI-6780 + Trametinib (first compound 2.53 µM) it was 0.213; with AGI-6780 + Trametinib (first compound 8 µM), 0.194; with AGI-6780 + Tozasertib (first compound 0.08 µM), 0.288; with AGI-6780 + Tozasertib (first compound 0.253 µM), 0.213. Besides, the relative viability with AGI-6780 + Tozasertib (first compound 0.8 µM) is 0.224; with AGI-6780 + Tozasertib (first compound 2.53 µM) it was 0.27; with AGI-6780 + Tozasertib (first compound 8 µM) it was 0.284; in the test with AGI-6780 + AZD7762 (first compound 0.08 µM) it was 1.42; with AGI-6780 + AZD7762 (first compound 0.253 µM) it was 1.43; in the test with AGI-6780 + AZD7762 (first compound 0.8 µM) it was 1.34. Besides, the relative viability is 1.64 in the test with AGI-6780 + AZD7762 (first compound 2.53 µM) and 1.47 in the test with AGI-6780 + AZD7762 (first compound 8 µM).
